# Patent publication US20050060764A1, “Mouse model for bone metabolism” (priority 2003, published 2005)
# Strand notation (5' to 3'): a small letter for the sugar, then the base; units joined by * are phosphorothioate-linked, units joined directly phosphodiester-linked; [ ] holds rarer units or linkages, { } end groups; capitals alone tell only the bases. e = 2'-O-(2-methoxyethyl) (MOE); [5mC] = 5-methylcytosine; d = 2'-deoxy (DNA)
# Test system: rat RANKL mRNA
# Assay: Antisense inhibition of rat RANKL mRNA levels in UMR-106 cells, quantitative real-time PCR (Table 3)
# Format: cell-based
# Parameters: concentration or dose not given beside the values
# Settings: averages from three experiments
# Experimental: Cells were seeded onto 24-well plates (Falcon-353047) at a density of […] for use in antisense oligonucleotide transfection.
# Cells are treated and data are obtained in triplicate. […] Cells were harvested 16-24 hours after oligonucleotide treatment.
# PCR reagents were obtained from Invitrogen Corporation, (Carlsbad, Calif.).
# Probes and primers to rat RANKL were designed to hybridize to a rat RANKL sequence, using published sequence information (GenBank accession number NM_057149.1, incorporated herein as SEQ ID NO:18). For rat RANKL the PCR primers were: • forward primer: […] (SEQ ID NO:19) • reverse primer: […] (SEQ ID NO: 20) and the • PCR probe was: FAM-[…]-TAMRA (SEQ ID NO: 21) where FAM is the fluorescent reporter dye and TAMRA is the quencher dye. For rat GAPDH the PCR primers were: • forward primer: […](SEQ ID NO:22) • reverse primer: […](SEQ ID NO:23) and the • PCR probe was: 5′ JOE-[…]-TAMRA 3′ (SEQ ID NO: 24) where JOE is the fluorescent reporter dye and TAMRA is the quencher dye.
# In accordance with the present invention, a second series of antisense compounds was designed to target different regions of the rat RANKL RNA, using published sequences (GenBank accession number NM_057149.1, incorporated herein as SEQ ID NO: 18, and GenBank accession number AF425669.1, incorporated herein as SEQ ID NO: 200). […] All cytidine residues are 5-methylcytidines. […] If present, “N.D.” indicates “no data”.
row,Substance,% INHIB (inhibition of rat RANKL mRNA levels)
1,286613 (antisense eG*eA*eT*e[5mC]*eA*dT*dG*dG*dT*dA*d[5mC]*d[5mC]*dA*dA*dG*eA*eG*eG*eA*e[5mC]) [compound 286613],39%
2,286631 (antisense eA*eT*eG*e[5mC]*eT*dG*dG*dT*dT*dT*dT*dA*dA*d[5mC]*dG*eA*e[5mC]*eA*eT*eA) [compound 286631],35%
3,"ttttaacgacatataccatc (eT*eT*eT*eT*eA*dA*d[5mC]*dG*dA*d[5mC]*dA*dT*dA*dT*dA*e[5mC]*e[5mC]*eA*eT*e[5mC]; antisense) [ISIS 286630, 2′-MOE gapmer targeted to rat RANKL]",at least 40%
4,286630 (antisense eT*eT*eT*eT*eA*dA*d[5mC]*dG*dA*d[5mC]*dA*dT*dA*dT*dA*e[5mC]*e[5mC]*eA*eT*e[5mC]) [compound 286630],44%
5,286617 (antisense eA*eG*eT*eT*eT*dT*d[5mC]*d[5mC]*dG*dT*dT*dG*d[5mC]*dT*dT*eA*eA*e[5mC]*eG*eT) [compound 286617],52%
6,286590 (antisense e[5mC]*eA*eG*eG*eA*dA*d[5mC]*dA*dG*dA*dG*d[5mC]*dG*dA*dT*eG*e[5mC]*eT*eG*e[5mC]) [compound 286590],47%
7,"gcatatccatgctaaggctc (eG*e[5mC]*eA*eT*eA*dT*d[5mC]*d[5mC]*dA*dT*dG*d[5mC]*dT*dA*dA*eG*eG*e[5mC]*eT*e[5mC]; antisense) [ISIS 286643, 2′-MOE gapmer targeted to rat RANKL]",at least 40%
8,"cgcgtgctgtcttctgatat (e[5mC]*eG*e[5mC]*eG*eT*dG*d[5mC]*dT*dG*dT*d[5mC]*dT*dT*d[5mC]*dT*eG*eA*eT*eA*eT; antisense) [ISIS 286599, 2′-MOE gapmer targeted to rat RANKL]",at least 40%
9,286656 (eT*eT*eT*eT*eG*d[5mC]*dA*d[5mC]*dA*dG*dA*dA*dA*dA*d[5mC]*e[5mC]*eT*eT*eA*e[5mC]; antisense) [compound 286656],12%
10,286651 (eA*eG*eG*eT*eT*d[5mC]*dT*d[5mC]*dA*dG*dT*dG*dG*d[5mC]*dA*e[5mC]*eA*eG*eG*e[5mC]; antisense) [compound 286651],80%
11,286611 (antisense eA*eG*eA*eG*eG*dA*d[5mC]*dA*dG*dA*d[5mC]*dT*dG*dA*d[5mC]*eT*eT*eT*eA*eT) [compound 286611],47%
12,"gcgcaggtacttgccgtagt (antisense eG*e[5mC]*eG*e[5mC]*eA*dG*dG*dT*dA*d[5mC]*dT*dT*dG*d[5mC]*d[5mC]*eG*eT*eA*eG*eT) [ISIS 286587, 2′-MOE gapmer targeted to rat RANKL]",at least 40%
13,286635 (antisense eT*eA*eA*eA*eA*dG*dT*dG*dG*dA*dA*dT*dT*d[5mC]*dA*eG*eA*eA*eT*eT) [compound 286635],11%
14,286637 (antisense e[5mC]*eG*e[5mC]*eA*eT*d[5mC]*dT*dT*dG*dA*dT*d[5mC]*d[5mC]*dG*dG*eA*eT*e[5mC]*e[5mC]*eA) [compound 286637],27%
15,286641 (antisense e[5mC]*eT*eT*eT*eG*dA*dA*dA*dG*d[5mC]*d[5mC]*d[5mC]*d[5mC]*dA*dA*eA*eG*eT*eA*e[5mC]) [compound 286641],49%
16,286600 (antisense eT*eT*e[5mC]*eT*eG*dT*dA*dG*dA*dA*dG*d[5mC]*dA*dG*d[5mC]*eG*e[5mC]*eG*eT*eG) [compound 286600],13%
17,286614 (antisense eA*eT*e[5mC]*eT*eT*dG*dG*d[5mC]*d[5mC]*d[5mC]*dA*dG*d[5mC]*d[5mC]*dT*e[5mC]*eG*eA*eT*e[5mC]) [compound 286614],41%
18,286644 (antisense eG*eT*e[5mC]*eT*eT*dA*d[5mC]*dA*d[5mC]*dA*dT*dG*dT*dA*dT*e[5mC]*eT*eA*e[5mC]*eA) [compound 286644],57%

row,Substance,% INHIB (inhibition of rat RANKL mRNA levels)
1,"ctctgcaatgtaacggtacc (e[5mC]*eT*e[5mC]*eT*eG*d[5mC]*dA*dA*dT*dG*dT*dA*dA*d[5mC]*dG*eG*eT*eA*e[5mC]*e[5mC]; antisense) [ISIS 286652, 2′-MOE gapmer targeted to rat RANKL]",at least 40%
2,286615 (antisense eT*eA*eG*eA*eG*dA*dT*d[5mC]*dT*dT*dG*dG*d[5mC]*d[5mC]*d[5mC]*eA*eG*e[5mC]*e[5mC]*eT) [compound 286615],45%
3,"gcgatgctgcagaccacctg (antisense eG*e[5mC]*eG*eA*eT*dG*d[5mC]*dT*dG*d[5mC]*dA*dG*dA*d[5mC]*d[5mC]*eA*e[5mC]*e[5mC]*eT*eG) [ISIS 286588, 2′-MOE gapmer targeted to rat RANKL]",at least 40%
4,286610 (antisense eA*e[5mC]*eT*eT*eT*dA*dT*dG*dG*dG*dA*dA*d[5mC]*d[5mC]*d[5mC]*eG*eA*eT*eG*eG) [compound 286610],34%
5,286628 (antisense eA*eG*eA*eT*eA*dG*dT*d[5mC]*d[5mC]*dG*d[5mC]*dA*dG*dG*dT*eA*e[5mC]*eG*e[5mC]*eT) [compound 286628],24%
6,286598 (antisense e[5mC]*eT*eT*e[5mC]*eT*dG*dA*dT*dA*dT*dT*d[5mC]*dT*dG*dT*eT*eA*eG*eG*eA) [compound 286598],6%
7,"tttgcacggccccttgaaag (eT*eT*eT*eG*e[5mC]*dA*d[5mC]*dG*dG*d[5mC]*d[5mC]*d[5mC]*d[5mC]*dT*dT*eG*eA*eA*eA*eG; antisense) [ISIS 286605, 2′-MOE gapmer targeted to rat RANKL]",at least 40%
8,286655 (eG*eA*eA*eA*eA*d[5mC]*d[5mC]*dT*dT*dA*d[5mC]*dA*d[5mC]*d[5mC]*dT*eG*eA*eA*eA*eT; antisense) [compound 286655],0%
9,286639 (antisense e[5mC]*e[5mC]*e[5mC]*eA*eA*dA*dG*dT*dA*d[5mC]*dG*dT*d[5mC]*dG*d[5mC]*eA*eT*e[5mC]*eT*eT) [compound 286639],48%
10,"gatattctgttaggatccat (eG*eA*eT*eA*eT*dT*d[5mC]*dT*dG*dT*dT*dA*dG*dG*dA*eT*e[5mC]*e[5mC]*eA*eT; antisense) [ISIS 286597, 2′-MOE gapmer targeted to rat RANKL]",at least 40%
11,286625 (antisense eG*e[5mC]*eG*eT*eA*d[5mC]*dA*dG*dG*dT*dA*dA*dT*dA*dG*eA*eA*eG*e[5mC]*e[5mC]) [compound 286625],50%
12,"agttttccgttgcttaacgt (eA*eG*eT*eT*eT*dT*d[5mC]*d[5mC]*dG*dT*dT*dG*d[5mC]*dT*dT*eA*eA*e[5mC]*eG*eT; antisense) [ISIS 286617, 2′-MOE gapmer targeted to rat RANKL]",at least 40%
13,286593 (antisense e[5mC]*eT*eG*e[5mC]*eG*d[5mC]*dT*d[5mC]*dG*dA*dA*dA*dG*dT*dA*e[5mC]*eA*eG*eG*eA) [compound 286593],49%
14,"cccaaagtacgtcgcatctt (e[5mC]*e[5mC]*e[5mC]*eA*eA*dA*dG*dT*dA*d[5mC]*dG*dT*d[5mC]*dG*d[5mC]*eA*eT*e[5mC]*eT*eT; antisense) [ISIS 286639, 2′-MOE gapmer targeted to rat RANKL]",at least 40%
15,286607 (antisense eT*eG*eT*eG*eG*d[5mC]*d[5mC]*d[5mC]*d[5mC]*dA*d[5mC]*dA*dA*dT*dG*eT*eG*eT*eT*eG) [compound 286607],48%
16,"atcttggcccagcctcgatc (eA*eT*e[5mC]*eT*eT*dG*dG*d[5mC]*d[5mC]*d[5mC]*dA*dG*d[5mC]*d[5mC]*dT*e[5mC]*eG*eA*eT*e[5mC]; antisense) [ISIS 286614, 2′-MOE gapmer targeted to rat RANKL]",at least 40%
17,286589 (antisense eA*e[5mC]*eA*eG*eA*dG*d[5mC]*dG*dA*dT*dG*d[5mC]*dT*dG*d[5mC]*eA*eG*eA*e[5mC]*e[5mC]) [compound 286589],49%
